Measured values reported in article PMC11148080, “Ru(II)-based complexes containing 2-thiouracil derivatives suppress liver cancer stem cells by targeting NF-κB and Akt/mTOR signaling” (Cell Death Discovery, 2024).
Several values for one entry are separate records, joined by “and”; a condition that tells them apart may be missing. Equal values may be shown once.

How the values were obtained:
PBMC = assay: Alamar Blue cytotoxicity, noncancerous cells; type: cell-based, human; settings: 72 h
Description: The Alamar Blue assay was used to measure cell viability, as previously described. Adherent cells were seeded in 96-well plates at a density of 7 × 10^3 cells per well, and suspended cells were seeded at 3 × 10^4 cells per well. Drugs were added to each well after overnight incubation for adherent cells or immediately after seeding for suspension cells, and incubation continued for an additional 72 h. The positive control included doxorubicin (Laboratorio IMA S.A.I.C., Buenos Aires, Argentina). Four hours (for cell lines) or 24 h (for primary cultures) before the end of incubation, 20 μL of resazurin (30 μM) (Sigma‒Aldrich Co. St. Louis, MO, USA) was added to each well. The absorbance at 570 and 600 nm was measured using a SpectraMax 190 microplate reader (Molecular Devices, Sunnyvale, CA, USA). […]
PBMC heath peripheral blood mononuclear human primary cell […]
Then, the PBMCs were resuspended in RPMI 1640 or DMEM-F12 supplemented with 20% FBS and 1% antibiotics. The cells were plated at 5 × 10^5 cells/well. Concanavalin A (10 μg/mL, Sigma‒Aldrich) was used as a mitogen to trigger cell division in T lymphocytes and was added at the beginning of the culture. The Research Ethics Committee of the Oswaldo Cruz Foundation

HepG2 cells [1] = assay: DNA content assay (internucleosomal DNA fragmentation, cell cycle); type: cell-based, human; settings: for DNA fragmentation (sub-G0/G1): HepG2, 72 h, control 5.6%
Description: Internucleosomal DNA fragmentation and cell cycle distribution were determined by a DNA content assay. The cells were stained with PI using a solution containing 0.1% Triton X-100, 2 µg/mL PI, 0.1% sodium citrate, and 100 μg/mL RNAse (all from Sigma‒Aldrich) and incubated in the dark for 15 min at room temperature. For all flow cytometry analyses, cellular fluorescence was measured using a BD LSRFortessa cytometer, BD FACSDiva software (BD Biosciences) and FlowJo software 10 (FlowJo LLC; Ashland, OR, USA). A minimum of 10,000 events were obtained per sample for intracellular staining, and a minimum of 30,000 events per sample were acquired for cell surface protein staining. Doublets were removed using FSC-A vs FCS-H and SCC-A vs SCC-H. Cellular debris was excluded from the analysis.

BJ = assay: Alamar Blue cytotoxicity, noncancerous cells; type: cell-based, human; settings: 72 h
Description: (§1) The Alamar Blue assay was used to measure cell viability, as previously described. Adherent cells were seeded in 96-well plates at a density of 7 × 10^3 cells per well, and suspended cells were seeded at 3 × 10^4 cells per well. Drugs were added to each well after overnight incubation for adherent cells or immediately after seeding for suspension cells, and incubation continued for an additional 72 h. The positive control included doxorubicin (Laboratorio IMA S.A.I.C., Buenos Aires, Argentina). Four hours (for cell lines) or 24 h (for primary cultures) before the end of incubation, 20 μL of resazurin (30 μM) (Sigma‒Aldrich Co. St. Louis, MO, USA) was added to each well. The absorbance at 570 and 600 nm was measured using a SpectraMax 190 microplate reader (Molecular Devices, Sunnyvale, CA, USA).

MRC-5 = assay: Alamar Blue cytotoxicity, noncancerous cells; type: cell-based, human; settings: MRC-5, 72 h
Description: as §1

HepG2 cell xenografts = assay: HCC tumor growth xenograft model; type: in vivo, C.B-17 SCID mice; settings: 21 days; for mean tumor weight: negative control 981 mg
Description: A total of 48 C.B-17 SCID mice (male and female, 20–25 g) were obtained from the FIOCRUZ-BA animal facility (Salvador, Bahia, Brazil) in accordance with experimental methods authorized by the local Animal Ethics Committee (#22/2021). All mice were fed a standard pellet diet (food and water available ad libitum) and housed in an artificially lit room (12 h dark/light cycle).
HepG2 cells (10^7 cells/500 μL) were implanted subcutaneously into the left front armpit of mice as previously described. The mice were administered intraperitoneally (200 μL/animal) once a day for 3 weeks. […] The animals were euthanized with an anesthetic overdose (thiopental, 100 mg/kg) 1 day after treatment, and the tumors were removed, weighed, and processed for histological examination.

HL-60 = assay: Alamar Blue cytotoxicity; type: cell-based, human; settings: for IC50: HL-60, 72 h
Description: The Alamar Blue assay was used to measure cell viability, as previously described. Adherent cells were seeded in 96-well plates at a density of 7 × 10^3 cells per well, and suspended cells were seeded at 3 × 10^4 cells per well. Drugs were added to each well after overnight incubation for adherent cells or immediately after seeding for suspension cells, and incubation continued for an additional 72 h. […] Four hours (for cell lines) or 24 h (for primary cultures) before the end of incubation, 20 μL of resazurin (30 μM) (Sigma‒Aldrich Co. St. Louis, MO, USA) was added to each well. The absorbance at 570 and 600 nm was measured using a SpectraMax 190 microplate reader (Molecular Devices, Sunnyvale, CA, USA).

4T1 = assay: Alamar Blue cytotoxicity; type: cell-based, mouse; settings: for IC50: 4T1, 72 h
Description: as §1

B16-F10 = assay: Alamar Blue cytotoxicity; type: cell-based, mouse; settings: for IC50: B16-F10, 72 h
Description: as §1

K-562 = assay: Alamar Blue cytotoxicity; type: cell-based, human; settings: for IC50: K-562, 72 h
Description: as §1

MCF-7 = assay: Alamar Blue cytotoxicity; type: cell-based, human; settings: for IC50: MCF-7, 72 h
Description: as §1

HepG2 cells [2] = assay: Annexin V-FITC/PI apoptosis detection; type: cell-based, human; settings: for apoptosis (annexin V-FITC+ cells): HepG2, 72 h, control 4.8%; for percentage of necrotic cells: 24, 48, 72 h
Description: For apoptosis detection, cell viability was quantified using Annexin V-FITC/PI (FITC Annexin V Apoptosis Detection Kit I, BD Biosciences, San Jose, CA, USA) according to the manufacturer’s instructions. The cells were also stained with rhodamine 123 (5 μg/mL, Sigma Aldrich Co.) for 15 min at 37 °C in the dark to assess the mitochondrial transmembrane potential. After the cells were washed, they were incubated in saline for 30 min in the dark at 37 °C and analyzed by flow cytometry. For all flow cytometry analyses, cellular fluorescence was measured using a BD LSRFortessa cytometer, BD FACSDiva software (BD Biosciences) and FlowJo software 10 (FlowJo LLC; Ashland, OR, USA). A minimum of 10,000 events were obtained per sample for intracellular staining, and a minimum of 30,000 events per sample were acquired for cell surface protein staining. Doublets were removed using FSC-A vs FCS-H and SCC-A vs SCC-H. Cellular debris was excluded from the analysis.

[3] = HepG2, DOX 1 μM, positive control

In the case of `F[P-](F)(F)(F)(F)F.O=c1cc[nH]c([S][Ru+])n1.c1ccc(-c2ccccn2)nc1.c1ccc(P(c2ccccc2)c2ccccc2)cc1.c1ccc(P(c2ccccc2)c2ccccc2)cc1` [Complex 1, trans-[Ru(2TU)(PPh3)2(bipy)]PF6], the IC50 (PBMC) is reported as 14.2 µM, the “DNA fragmentation (sub-G0/G1)” value (HepG2 cells [1]; 2 µM) is reported as 12.3% and the “DNA fragmentation (sub-G0/G1)” value (HepG2 cells [1]; 4 µM) is reported as 26.7%. For the same molecule, the “DNA fragmentation (sub-G0/G1)” value (HepG2 cells [1]; 8 µM) was 43.1%, the IC50 (BJ) was 7 µM and the IC50 (MRC-5) was 17.7 µM. For the same molecule, the tumor inhibition (HepG2 cell xenografts; 2 mg/kg i.p. once a day) was 35.3%, the mean tumor weight (HepG2 cell xenografts; 2 mg/kg i.p. once a day) was 635 mg and the tumor inhibition (HepG2 cell xenografts; 4 mg/kg i.p. once a day) was 53.6%. For the same molecule, the mean tumor weight (HepG2 cell xenografts; 4 mg/kg i.p. once a day) was 455 mg, the IC50 (HL-60) was 5.71 µM and the IC50 (4T1) was 11.7 µM. For the same molecule, the IC50 (B16-F10) was 3.04 µM, the IC50 (K-562) was 6.77 µM and the IC50 (MCF-7) was 9.21 µM. The “apoptosis (annexin V-FITC+ cells)” value (HepG2 cells [2]; 2 µM) was 9.0%, the “apoptosis (annexin V-FITC+ cells)” value (HepG2 cells [2]; 4 µM) was 48.9% and the “apoptosis (annexin V-FITC+ cells)” value (HepG2 cells [2]; 8 µM) was 76.1%. For the same molecule, the “percentage of necrotic cells” value (HepG2 cells [2]; HepG2) was “no significant increase”.

With `COc1cccc2c1C(=O)c1c(O)c3c(c(O)c1C2=O)C[C@@](O)(C(=O)CO)C[C@@H]3O[C@H]1C[C@H](N)[C@H](O)[C@H](C)O1` [Doxorubicin] the IC50 (PBMC; Homo sapiens) was 1.33 µM, the DNA fragmentation (HepG2 cells [1]; [3]) was “also caused DNA fragmentation” and the IC50 (BJ; Homo sapiens) was 1.85 µM. The IC50 (MRC-5; Homo sapiens, MRC5) was 1.7 µM, the tumor inhibition (HepG2 cell xenografts; 1 mg/kg i.p. once a day) was 32.2% and the mean tumor weight (HepG2 cell xenografts; 1 mg/kg i.p. once a day) was 665 mg. The IC50 (HL-60; Homo sapiens) was 0.35 µM, the Selectivity index (HL-60; IC50 BJ/IC50 HL-60) was 5.29 and the Selectivity index (HL-60; IC50 MRC-5/IC50 HL-60) was 4.86. For the same molecule, the Selectivity index (4T1; IC50 BJ/IC50 4T1) was 1.21, the Selectivity index (4T1; IC50 MRC-5/IC50 4T1) was 1.11 and the Selectivity index (4T1; IC50 PBMC/IC50 4T1) was 0.87. It also gave an IC50 (4T1; Mus musculus) of 1.53 µM, a Selectivity index (B16-F10; IC50 BJ/IC50 B16-F10) of 4.30 and a Selectivity index (B16-F10; IC50 MRC-5/IC50 B16-F10) of 3.95. The Selectivity index (B16-F10; IC50 PBMC/IC50 B16-F10) was 3.09, the IC50 (B16-F10; Mus musculus) was 0.43 µM and the IC50 (K-562; Homo sapiens, K562) was 1.65 µM. It also gave a Selectivity index (K-562; IC50 BJ/IC50 K-562) of 1.12, a Selectivity index (K-562; IC50 MRC-5/IC50 K-562) of 1.03 and a Selectivity index (K-562; IC50 PBMC/IC50 K-562) of 0.81. The IC50 (MCF-7; Homo sapiens, MCF7) was 2.28 µM, the Selectivity index (MCF-7; IC50 BJ/IC50 MCF-7) was 0.81 and the Selectivity index (MCF-7; IC50 MRC-5/IC50 MCF-7) was 0.75. For the same molecule, the Selectivity index (MCF-7; IC50 PBMC/IC50 MCF-7) was 0.58 and the apoptosis (HepG2 cells [2]; [3]) was “also led to apoptosis”.

For `Cc1cc(=O)nc([S][Ru+])[nH]1.F[P-](F)(F)(F)(F)F.c1ccc(-c2ccccn2)nc1.c1ccc(P(c2ccccc2)c2ccccc2)cc1.c1ccc(P(c2ccccc2)c2ccccc2)cc1` [Complex 2, trans-[Ru(6m2TU)(PPh3)2(bipy)]PF6], the IC50 (PBMC) was 11.7 µM, the “DNA fragmentation (sub-G0/G1)” value (HepG2 cells [1]; 1.5 µM) was 18.6% and the “DNA fragmentation (sub-G0/G1)” value (HepG2 cells [1]; 3 µM) was 39.1%. The “DNA fragmentation (sub-G0/G1)” value (HepG2 cells [1]; 6 µM) was 72.9%, the IC50 (BJ) was 7.8 µM and 7.79 µM and the IC50 (MRC-5) was 15.2 µM. It also gave an IC50 (MRC-5; listed as 2) of 15.2 µM, a tumor inhibition (HepG2 cell xenografts; 2 mg/kg i.p. once a day) of 63.6% and a mean tumor weight (HepG2 cell xenografts; 2 mg/kg i.p. once a day) of 358 mg. It also gave a tumor inhibition (HepG2 cell xenografts; 4 mg/kg i.p. once a day) of 65.4%, a mean tumor weight (HepG2 cell xenografts; 4 mg/kg i.p. once a day) of 340 mg and an IC50 (HL-60) of 4.11 µM. For the same molecule, the IC50 (4T1) was 4.52 µM, the IC50 (B16-F10) was 2.75 µM and the IC50 (K-562) was 7.69 µM. For the same molecule, the IC50 (MCF-7) was 7.29 µM, the “apoptosis (annexin V-FITC+ cells)” value (HepG2 cells [2]; 1.5 µM) was 9.1% and the “apoptosis (annexin V-FITC+ cells)” value (HepG2 cells [2]; 3 µM) was 40.7%. The “apoptosis (annexin V-FITC+ cells)” value (HepG2 cells [2]; 6 µM) was 76.9% and the “percentage of necrotic cells” value (HepG2 cells [2]; HepG2) was “no significant increase”.
